Assay results reported in US20110159086A1, “PHARMACEUTICAL FORMULATION COMPRISING A CB1-RECEPTOR COMPOUND IN A SOLID SOLUTION AND/OR SOLID DISPERSION” (LABORATORIOS DEL DR. ESTEVE, S.A., priority 2008, published 2011).
Read-outs that look alike come from different tables or passages of the source.

Assays:
[1] = Dissolution profiles of the hot melt extrusion formulations, Non-Sink conditions (HCL 0.1N, pH 1.2); assay type: physicochemical; conditions: for % dissolved (pH 1.2): Non-Sink, HCL 0.1N pH 1.2, paddles 50 rpm, 1000 ml, 37° C.
Text: (§1) A mixture has been prepared during two minutes in proportion as described in Table 4. The “Hot Melt Extrusion” formulations, in percentage, have been developed for each series.
(§2) The mixture has been loaded in an extruder and the temperature has been adjusted according to the type of polymer used, as described below:
(§3) The obtained extrudates have been cooled at room temperature and milled. The particle size has then been homogenized. A powder has been obtained which has then been dosified in capsules for administration
(§4) The dissolution apparatus used was HANSON […]. SR8 PLUS, the UV spectrophotometer HEWLET PACKARD 8452.
In the NON-SINK conditions, the active ingredient concentration in the dissolution medium is above the saturation concentration, i.e. the active ingredient is in a medium in which it is not soluble.
The conditions used for the Non-Sink assays were:
Dissolution medium: HCL 0.1N, pH 1.2
(§5) Vessel temperature 37° C.

[2] = Pharmacokinetic study in rats, plasma levels of the (4S,5S) cis enantiomer by chiral LC-MS/MS; assay type: in vivo, male Wistar Hannover rats; conditions: for Vd: male, rat
[3] = Dissolution profiles of the hot melt extrusion formulations, Sink conditions (HCL 0.1N, pH 1.2 + Sodium Lauryl Sulfate 0.1%); assay type: physicochemical; conditions: for % dissolved (pH 1.2 SLS 0.1%): Sink, HCL 0.1N pH 1.2 + SLS 0.1%, paddles 50 rpm, 1000 ml, 37° C.
Text: as §1, §2, §3, §4
In the SINK conditions, the active ingredient concentration in the dissolution medium is below 20% of the saturation concentration, i.e. the active ingredient will dissolve easily in the medium.
The conditions used for the Sink assays were:
Dissolution medium: HCL 0.1N, pH 1.2+Sodium Lauryl Sulfate 0.1%
as §5

[4] = Solubility increase (Δ) = FD60 min formulation/FD % 60 min (drug), FD = dissolved drug fraction
[5] = Wistar Hannover (HSDHan:WIST), po, 20 mg/kg, male rat, single dose, fasting, analyte (4S,5S) cis enantiomer in plasma, suspension = active alone in 5% arabic gum, HME = example 15
[6] = Wistar Hannover, plasma, iv, 1 mg/kg, male rat, solution

**Q.** Which results are given for `C[C@@H]1C(C(=O)NN2[C@H](C)CCC[C@@H]2C)=NN(c2ccc(Cl)cc2Cl)[C@@H]1c1ccc(Cl)cc1` [(4S,5S) cis enantiomer, (4S,5S)-5-(4-chlorophenyl)-1-(2,4-dichlorophenyl)-N-(cis-2,6-dimethylpiperidin-1-yl)-4-methyl-4,5-dihydro-1H-pyrazole-3-carboxamide]?
**A.** Increase (Δ) 60 min. Non Sink Conditions [1, 4]: 0.00; % dissolved (pH 1.2) ([1]; time 0 min): 0.0%; % dissolved (pH 1.2) ([1]; time 5 min): 2.2%; % dissolved (pH 1.2) ([1]; time 10 min): 1.9%; % dissolved (pH 1.2) ([1]; time 15 min): 1.4%; % dissolved (pH 1.2) ([1]; time 20 min): 1.5%; % dissolved (pH 1.2) ([1]; time 30 min): 1.6%; % dissolved (pH 1.2) ([1]; time 45 min): 2.7%; % dissolved (pH 1.2) ([1]; time 60 min): 2.9%; AUC(0-t) [2, 5]: 0.374 µg·h/mL; Tmax [2, 5]: 6 h; Cmax ([2]; Wistar Hannover (HSDHan:WIST), po, 20 mg/kg, male rat, single dose, fasting, analyte (4S,5S) cis enantiomer in plasma, suspension = active alone in 5% arabic gum, HME = example 15, read-out: Cmax): 0.103 µg/mL; AUC(0-inf) [2, 6]: 0.559 µg·h/mL; AUC(0-t) [2, 6]: 0.534 µg·h/mL; clearance [2, 6]: 1.8 L/h/kg; half-life [2, 6]: 8.2 h; Cmax ([2]; Wistar Hannover, plasma, iv, 1 mg/kg, male rat, solution, read-out: Cmax (C0 for intravenous)): 0.829 µg/mL; Vd ([2]; Wistar Hannover, plasma, iv, 1 mg/kg, iv, 1 mg/kg, solution, read-out: Vd): 21.1 L/kg; Vd ([2]; Wistar Hannover, plasma, iv, 1 mg/kg, iv, 1 mg/kg, solution, read-out: Vss): 8.7 L/kg; F (Absolute bioavailability estimated from AUC0-t) ([2]; po, 20 mg/kg, male rat, versus iv 1 mg/kg solution, suspension = active alone in 5% arabic gum, HME = example 15): 3.5%; Increase (Δ) 60 min. Sink Conditions [3, 4]: 0.00; % dissolved (pH 1.2 SLS 0.1%) ([3]; time 0 min): 0.0%; % dissolved (pH 1.2 SLS 0.1%) ([3]; time 5 min): 4.1%; % dissolved (pH 1.2 SLS 0.1%) ([3]; time 10 min): 6.5%; % dissolved (pH 1.2 SLS 0.1%) ([3]; time 15 min): 11.8%; % dissolved (pH 1.2 SLS 0.1%) ([3]; time 20 min): 16.0%; % dissolved (pH 1.2 SLS 0.1%) ([3]; time 30 min): 24.3%; % dissolved (pH 1.2 SLS 0.1%) ([3]; time 45 min): 37.8%; % dissolved (pH 1.2 SLS 0.1%) ([3]; time 60 min): 53.0%
